≈ marks a conversion by molar mass, not a printed value.
System: anti-dinitolmide monoclonal antibody secreted by hybridoma cell strain DAS3H10
Assay: indirect competitive ELISA (IC50 and cross-reaction rates)
Assay type: binding, mouse
Details: for IC50: dinitolmide monoclonal antibody; for cross-reaction rates: relative to dinitolmide
Source text: The basic steps for the preparation of the DAS3H10 cell line provided by the invention are: • (1) Preparation and identification of immunogen: 3,5-dinitro-2-methylbenzoic acid, which is a structure analogue of dinitolmide, was used as a raw material and connected to the amino group of the protein carrier with the activated ester method. After the reaction was completed, the complete immunogen and the unconnected small molecule hapten were separated by dialysis. And the complete immunogen was identified by UV-VIS absorption spectrometry. • (2) Immunization of mice: BALB/c mice aged 6-8 weeks were selected for immunization. The immunogen, which was emulsified with […], was injected to the BALB/c mice by subcutaneous injection at multiple points. The Faust complete adjuvant was used for the first immunization, the Faust incomplete adjuvant was used for the booster immunization, and the commixture of the immunogen and normal saline was used for the sprint immunization by intraperitoneal injection. Each immunization dose was half of the previous immunization dose, and the interval between each immunization was three weeks. After the third immunization, blood collection was collected every one week for the detection of serum titer and inhibition. • (3) Cell fusion and cell line establishment: the cell fusion of mouse spleen cells and mouse myeloma cells was accomplished by polyethylene glycol (PEG 2000). After cultured culturing in HAT medium, there was detection of positive cells wells by indirect ELISA, and further detection of the inhibition effect of positive cell wells by indirect competition ELISA. Positive cell wells with the best inhibition effect were subcloned three times by limiting dilution assay, and finally the hybridoma cell strain DAS3H10 was finally screened. • (4) Identification of the properties of hybridoma cell strains: the identification of hybridoma cell strains were determined by HRP, and IC50, cross-reaction rates and affinity were determined by ELISA.
4. Cell screening and cell line establishment: during the cell fusion, half of the RPMI-1640 screening medium of the fusion cell was changed on the 3rd day, and all was replaced by the RPMI-1640 screening medium with 20% fetal bovine serum, 1% of 100×HT on the fifth day. The cell supernatant was used for screening on the 7th day, which is divided into two steps: the first step is to screen out the positive cell wells with indirect ELISA, the second step is to detect the inhibition effect of positive cell wells by indirect competition ELISA with dinitolmide used as the standard substance. The cell wells with good inhibition effect of dinitrotolamine were selected to be subcloned with finite dilution assay, and the inhibition effect was detected in the same way. This process was repeated three times to obtain the cell line.
6. […] Each sample was added to 3 wells. […]

Row | Compound | IC50 [µg/mL] | cross-reaction rates [%]
1 | N#CC(c1ccc(Cl)cc1)c1c(Cl)cc(-n2ncc(=O)[nH]c2=O)cc1Cl (centres unmarked) [dikjuli] | >0.5 | <5
2 | Cc1cc(-n2c(=O)[nH]c(=O)n(C)c2=O)ccc1Oc1ccc(SC(F)(F)F)cc1 [torquoly] | >0.5 | <5
3 | Cc1c(C(N)=O)cc([N+](=O)[O-])cc1[N+](=O)[O-] [dinitolmide] | 0.00901 (≈ 0.04 µM) | 100
4 | nicarbazine | >0.5 | <5

— patent publication US12286488B2, “Anti-dinitolmide monoclonal antibodies and hybridoma cell strain that secretes them” (JIANGNAN UNIVERSITY, priority 2020, dated 2025)
